Reference: ChEMBL document CHEMBL4196057, “The chemical diversity and structure-based evolution of non-peptide CXCR4 antagonists with diverse therapeutic potential” (Eur J Med Chem, 2018)
Values belong to the molecule of their own block, whether it stands above or below them.

Columns and labels:
[1] = tested on: Human immunodeficiency virus 1; assay: Antiviral activity against HIV1 infected in human PBMC measured at 7 to 10 days post infection by ELISA; assay type: functional, organism-based; conditions: Human immunodeficiency virus 1, PBMC
[2] = target: T1, C-X-C chemokine receptor type 4 (Homo sapiens, UniProt P61073); assay: Inhibition of SDF-1 binding to CXCR4 (unknown origin) at 10 uM relative to control
T1 sequence (P61073 whole entry): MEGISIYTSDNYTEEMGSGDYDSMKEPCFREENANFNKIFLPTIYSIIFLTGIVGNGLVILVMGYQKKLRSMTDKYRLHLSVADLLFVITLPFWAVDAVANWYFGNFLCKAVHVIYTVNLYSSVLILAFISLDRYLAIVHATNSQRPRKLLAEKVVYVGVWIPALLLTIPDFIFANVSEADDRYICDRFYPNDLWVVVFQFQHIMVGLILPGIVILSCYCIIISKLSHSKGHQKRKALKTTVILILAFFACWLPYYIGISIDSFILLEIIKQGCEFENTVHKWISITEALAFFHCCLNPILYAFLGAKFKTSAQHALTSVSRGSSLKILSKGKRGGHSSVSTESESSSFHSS

[3] = target: T1, C-X-C chemokine receptor type 4; assay: Inhibition of SDF-1 binding to CXCR4 (unknown origin)
[4] = tested on: Human immunodeficiency virus; assay: Antiviral activity against HIV R4; assay type: functional, organism-based; conditions: Human immunodeficiency virus 1, R4
[5] = target: T1, C-X-C chemokine receptor type 4; assay: Antagonist activity at CXCR4 (unknown origin); assay type: functional
[6] = tested on: Human immunodeficiency virus 1; assay: Antiviral activity against HIV1 3B infected in human PBMC after 1 hr by ELISA; assay type: functional, organism-based; conditions: Human immunodeficiency virus 1, 3B
[7] = tested on: Human immunodeficiency virus 1; assay: Antiviral activity against HIV1 NL4-3 infected in human PBMC after 1 hr by ELISA; assay type: functional, organism-based; conditions: Human immunodeficiency virus 1, NL4-3, PBMC
[8] = tested on: Human immunodeficiency virus 1; assay: Antiviral activity against HIV1 R5/X4 infected in human PBMC after 1 hr by ELISA; assay type: functional, organism-based; conditions: Human immunodeficiency virus 1, R5/X4, PBMC
[9] = tested on: Human immunodeficiency virus 1; assay: Antiviral activity against HIV1 R5 infected in human PBMC after 1 hr by ELISA; assay type: functional, organism-based; conditions: Human immunodeficiency virus 1, R5, PBMC
[10] = tested on: Human immunodeficiency virus 1; assay: Antiviral activity against HIV1 3B infected in human MT4 cells assessed as inhibition of virus induced cytopathic effect after 5 days by MTT assay; assay type: functional, organism-based; conditions: Human immunodeficiency virus 1, 3B, MT4, 120 h
[11] = tested on: Human immunodeficiency virus 1; assay: Antiviral activity against HIV1 assessed as inhibition of virus induced cytopathic effect; assay type: functional, organism-based
[12] = target: T1, C-X-C chemokine receptor type 4; assay: Displacement of [125I]SDF-1 from human CXCR4 expressed in HEK293 cell membranes after 1.5 hrs by Topcount method
[13] = tested on: Human immunodeficiency virus 1; assay: Antiviral activity against HIV1 3B; assay type: functional, organism-based; conditions: Human immunodeficiency virus 1, 3B
[14] = tested on: Human immunodeficiency virus 1; assay: Antiviral activity against HIV1 3B infected in human MT4 cells assessed as inhibition of virus replication by MTT assay; assay type: functional, organism-based; conditions: Human immunodeficiency virus 1, 3B
[15] = target: T1, C-X-C chemokine receptor type 4; assay: Displacement of [125I]SDF-1alpha from CXCR4 in human MT4 cells after 2 hrs by scintillation counting analysis; assay type: cell-based
[16] = Bioavailability in Wistar rat at 200 mg/ml/kg administered intraduodenal by LC-MS analysis; assay type: ADME, organism-based; conditions: in vivo
[17] = Plasma concentration in Wistar rat at 200 mg/ml/kg administered intraduodenal after 60 mins by LC-MS analysis; assay type: ADME
[18] = Cytotoxicity against human MT4 cells assessed as reduction in cell viability; assay type: cell-based

- inhibition [2]: > 50%
Structure (SMILES): c1ccc(CN2CCC(Nc3nccc(N4CCCCCC4)n3)C2)cc1 (centres undefined)

- IC50 [4]: 200 to 50000 nM
- IC50 [5]: 680 nM
Structure (SMILES): COc1ccc(NC(=O)NCCc2ccc3c(n2)NCCC3)cc1OC

- IC50 [4]: 200 to 50000 nM
- IC50 [5]: 600 nM
Structure (SMILES): O=C(NCCc1ccc2c(n1)NCCC2)Nc1cccc2ccccc12

- IC50 [6]: 1200 to 26500 nM
- IC50 [7]: 1200 to 26500 nM
- IC50 [8]: 1200 to 26500 nM
- IC50 [9]: 1200 to 26500 nM
Structure (SMILES): Clc1cc(CN2CCCNCCNCCCNCC2)cc(Cl)n1

- EC50 [11]: 1 nM
Structure (SMILES): c1ccc(CNCc2ccc(CN3CCNCCc4cccc(n4)CCNCC3)cc2)nc1

- IC50 [5]: < 20 nM
Structure (SMILES): Nc1cc(N2CCNCC2)nc(NCc2ccc(CNCCCNC3CCCCC3)cc2)n1

- EC50 [13]: 248 nM
Structure (SMILES): C1CNCCNCCCN(CCCN2CCCNCCNCCCNCC2)CCNC1

- EC50 [13]: 144 nM
Structure (SMILES): C1CNCCNCCCNC(C2CNCCCNCCNCCCN2)CNC1 (centres undefined)

- IC50 [12]: 36.2 nM
Structure (SMILES): c1ccc2c(NC3CCNCC3)nc(NCc3ccc(CNCCCNC4CCCCC4)cc3)nc2c1

- IC50 [5]: < 20 nM
Structure (SMILES): CN1CCN(c2cc(N)nc(NCc3ccc(CNCCCNC4CCCCC4)cc3)n2)CC1

- IC50 [3]: 11 nM
Structure (SMILES): Cc1ccsc1CN1CCC2(CC1)CCN(Cc1ccc(C(=O)N(Cc3ncc[nH]3)Cc3ncc[nH]3)cc1)C2

- IC50 [4]: 200 to 50000 nM
- IC50 [5]: 400 nM
Structure (SMILES): Cn1ccc2c(NC(=O)NCCc3ccc4c(n3)NCCC4)cccc21

- inhibition [2]: > 50%
Structure (SMILES): NCCNc1nccc(N2CCCCCC2)n1

- IC50 [4]: 200 to 50000 nM
- IC50 [5]: 200 nM
Structure (SMILES): FC(F)(F)c1ccc(NC(=S)NCCc2ccc3c(n2)NCCC3)cc1

- EC50 [11]: 4 nM
Structure (SMILES): c1ccc(CNCc2ccc(CN3CCNCCCOCCCNCC3)cc2)nc1

- IC50 [4]: 200 to 50000 nM
- IC50 [5]: 600 nM
Structure (SMILES): O=C(NCCc1ccc2c(n1)NCCC2)Nc1ccc(C(F)(F)F)cc1

- IC50 [3]: < 1000 nM
Structure (SMILES): CC(C)Oc1ccc(-c2ccc3ccn(CC(=O)NCCN(C)C4CCCCC4)c3c2)cc1

- IC50 [4]: 200 to 50000 nM
- IC50 [5]: 800 nM
Structure (SMILES): CC(C)c1ccccc1NC(=O)NCCc1ccc2c(n1)NCCC2

- EC50 [13]: 3 nM
Structure (SMILES): c1cc(CN2CCCNCCNCCCNCC2)ccc1CN1CCCNCCNCCCNCC1 [PLERIXAFOR]

- EC50 [11]: 9 nM
Structure (SMILES): c1ccc(CNCc2ccc(CN3CCCNCCNCCCNCC3)cc2)nc1

The remaining lines, values behind:

Structure (SMILES): CCCN(CCC)Cc1ccc(NC(=O)c2ccc(CN(Cc3ncc[nH]3)Cc3ncc[nH]3)cc2)cc1
- EC50 [1]: 2 nM

Structure (SMILES): CCCN(CCC)CCCCNCc1ccc(CN(Cc2ncc[nH]2)Cc2ncc[nH]2)cc1
- EC50 [1]: 2 nM

Structure (SMILES): c1ccc(CCNC[C@@H]2CCN(CCc3c[nH]c4ccc(-n5cnnc5)cc34)C2)cc1
- IC50 [3]: 7 to 20 nM

Structure (SMILES): CN(CCc1ccccc1)C[C@@H]1CCN(CCc2c[nH]c3ccc(-n4cnnc4)cc23)C1
- IC50 [3]: 7 to 20 nM

Structure (SMILES): CC1CCCCN1CCCNCc1ccc(CN2CCCNCCNCCCNCC2)cc1 (centres undefined)
- EC50 [10]: 43.6 nM

Structure (SMILES): CCCN(CCC)CCCCN(C)Cc1ccc(CN(Cc2ncc[nH]2)Cc2nccn2C)cc1
- EC50 [1]: 0.3 to 1 nM

Structure (SMILES): CCN(CC)CCCC(C)Nc1cc(/C=C/c2ccc([N+](=O)[O-])cc2)nc2cc(OC)ccc12 (centres undefined)
- IC50 [12]: 2160 nM

Structure (SMILES): c1ccc(CNCCN(CCNCc2ccccn2)Cc2ccc(CNCc3nc4ccccc4[nH]3)cc2)nc1
- IC50 [5]: 4 to 100 nM

Structure (SMILES): c1cc(CN2CCCNCCNCCCNCC2)ccc1CNCCCN1CCOCC1
- EC50 [10]: 134 nM

Structure (SMILES): C[C@H](NC(=O)[C@H](CCCNC(=N)N)NC(=O)c1ccc(CNCc2ccccn2)cc1)c1cccc2ccccc12
- EC50 [14]: 19.3 nM
- IC50 [15]: 13 nM
- bioavailability [16]: 7%
- concentration at 1 h [17]: 30.6 µM
- CC50 [18]: 400000 nM

Structure (SMILES): CC(C)(NC[C@@H]1CCN(CCc2c[nH]c3ccc(-n4cnnc4)cc23)C1)c1ccccc1
- IC50 [3]: 7 to 20 nM

Structure (SMILES): CC(NC[C@@H]1CCN(CCc2c[nH]c3ccc(-n4cnnc4)cc23)C1)c1ccccc1 (some centres undefined)
- IC50 [3]: 7 to 20 nM

Structure (SMILES): CC(C)CN(CCC[C@H](NC(=O)c1ccc(CNCc2ncc[nH]2)cc1)C(=O)N[C@@H](C)c1cccc2ccccc12)CC(C)C
- EC50 [10]: 6.7 nM

Structure (SMILES): CC1CCCCN1CCCNCc1ccc(CNCCCN2CCCCC2C)cc1 (centres undefined)
- EC50 [10]: 19.3 nM

Structure (SMILES): COc1ccc2[nH]c(CNCc3ccc(CN(CCNCc4ccccn4)CCNCc4ccccn4)cc3)nc2c1
- IC50 [5]: 4 to 100 nM

Structure (SMILES): CC(C)CN(CCCCNC(=O)c1ccc(CN(Cc2ncc[nH]2)Cc2ncc[nH]2)cc1)CC(C)C
- EC50 [1]: 3 nM
